Assay results as given in patent publication US9539252B2, “Piperazine-substituted benzothiophene derivatives as antipsychotic agents” (OTSUKA PHARMACEUTICAL CO., LTD., priority 2011, dated 2017).

Assay: Solubility in oil (sesame oil, benzyl benzoate), visual observation
Conditions: benzyl benzoate, oil or lipid, thermodynamic from solid

solubility, > 100 mg/mL:
O=C(NCC1CCCCC1)OCn1c(=O)ccc2ccc(OCCCCN3CCN(c4cccc5sccc45)CC3)cc21 [Example 63, N-cyclohexylmethylcarbamic acid 7-[4-(4-benzo[b]thiophen-4-ylpiperazin-1-yl)butoxy]-2-oxo-2H-quinolin-1-ylmethyl ester]
COC(=O)CNC(=O)OCN1C(=O)CCc2ccc(OCCCCN3CCN(c4cccc5sccc45)CC3)cc21 [Example 89, {7-[4-(4-benzo[b]thiophen-4-ylpiperazin-1-yl)butoxy]-2-oxo-3,4-dihydro-2H-quinolin-1-ylmethoxycarbonylamino}acetic acid methyl ester]
O=C(OCn1c(=O)ccc2ccc(OCCCCN3CCN(c4cccc5sccc45)CC3)cc21)N1CCC(F)(F)CC1 [Example 123, 4,4-difluoropiperidine-1-carboxylic acid 7-[4-(4-benzo[b]thiophen-4-ylpiperazin-1-yl)butoxy]-2-oxo-2H-quinolin-1-ylmethyl ester]
O=C(Oc1ccc2ccc(OCCCCN3CCN(c4cccc5sccc45)CC3)cc2n1)C1CCCCC1 [Example 380, 7-[4-(4-benzo[b]thiophen-4-yl-piperazin-1-yl)-butoxy]-quinolin-2-yl cyclohexanecarboxylate]
CCCCCCCCCCCCCC(=O)OCN1C(=O)CCc2ccc(OCCCCN3CCN(c4cccc5sccc45)CC3)cc21 [Example 82, tetradecanoic acid 7-[4-(4-benzo[b]thiophen-4-ylpiperazin-1-yl)butoxy]-2-oxo-3,4-dihydro-2H-quinolin-1-ylmethyl ester]
CCCCCCCCCCCCCCC(=O)OCn1c(=O)ccc2ccc(OCCCCN3CCN(c4cccc5sccc45)CC3)cc21 [Example 104, pentadecanoic acid 7-[4-(4-benzo[b]thiophen-4-ylpiperazin-1-yl)butoxy]-2-oxo-2H-quinolin-1-ylmethyl ester]
O=C(OCn1c(=O)ccc2ccc(OCCCCN3CCN(c4cccc5sccc45)CC3)cc21)C1CCCCC1 [Example 32, cyclohexanecarboxylic acid 7-[4-(4-benzo[b]thiophen-4-ylpiperazin-1-yl)butoxy]-2-oxo-2H-quinolin-1-ylmethyl ester]
CCCCCCCCCCCCCCC(=O)OCN1C(=O)CCc2ccc(OCCCCN3CCN(c4cccc5sccc45)CC3)cc21 [Example 91, pentadecanoic acid 7-[4-(4-benzo[b]thiophen-4-ylpiperazin-1-yl)butoxy]-2-oxo-3,4-dihydro-2H-quinolin-1-ylmethyl ester]
CCCCN(CCCC)C(=O)OCN1C(=O)CCc2ccc(OCCCCN3CCN(c4cccc5sccc45)CC3)cc21 [Example 28, N,N-dibutylcarbamic acid 7-[4-(4-benzo[b]thiophen-4-ylpiperazin-1-yl)butoxy]-2-oxo-3,4-dihydro-2H-quinolin-1-ylmethyl ester]
CN(C)C(=O)OCN1C(=O)CCc2ccc(OCCCCN3CCN(c4cccc5sccc45)CC3)cc21 [Example 47, N,N-dimethylcarbamic acid 7-[4-(4-benzo[b]thiophen-4-ylpiperazin-1-yl)butoxy]-2-oxo-3,4-dihydro-2H-quinolin-1-ylmethyl ester]
CCCCC(C)(C)C(=O)OCn1c(=O)ccc2ccc(OCCCCN3CCN(c4cccc5sccc45)CC3)cc21 [Example 103, 2,2-dimethylhexanoic acid 7-[4-(4-benzo[b]thiophen-4-ylpiperazin-1-yl)butoxy]-2-oxo-2H-quinolin-1-ylmethyl ester]
CN1CCC(C(=O)OCN2C(=O)CCc3ccc(OCCCCN4CCN(c5cccc6sccc56)CC4)cc32)CC1 [Example 102, 1-methylpiperidine-4-carboxylic acid 7-[4-(4-benzo[b]thiophen-4-ylpiperazin-1-yl)butoxy]-2-oxo-3,4-dihydro-2H-quinolin-1-ylmethyl ester]
O=C(OCn1c(=O)ccc2ccc(OCCCCN3CCN(c4cccc5sccc45)CC3)cc21)c1cccs1 [Example 141, thiophene-2-carboxylic acid 7-[4-(4-benzo[b]thiophen-4-ylpiperazin-1-yl)butoxy]-2-oxo-2H-quinolin-1-ylmethyl ester]
CC(C)(C)OC(=O)CC(=O)OCn1c(=O)ccc2ccc(OCCCCN3CCN(c4cccc5sccc45)CC3)cc21 [Example 148, malonic acid 7-[4-(4-benzo[b]thiophen-4-ylpiperazin-1-yl)butoxy]-2-oxo-2H-quinolin-1-ylmethyl ester tert-butyl ester]
O=C(OCn1c(=O)ccc2ccc(OCCCCN3CCN(c4cccc5sccc45)CC3)cc21)C1CCCCCC1 [Example 119, cycloheptanecarboxylic acid 7-[4-(4-benzo[b]thiophen-4-ylpiperazin-1-yl)butoxy]-2-oxo-2H-quinolin-1-ylmethyl ester]
O=C(NCCC(F)(F)F)OCn1c(=O)ccc2ccc(OCCCCN3CCN(c4cccc5sccc45)CC3)cc21 [Example 139, N-(3,3,3-trifluoropropyl)carbamic acid 7-[4-(4-benzo[b]thiophen-4-ylpiperazin-1-yl)butoxy]-2-oxo-2H-quinolin-1-ylmethyl ester]
CCNC(=O)OCn1c(=O)ccc2ccc(OCCCCN3CCN(c4cccc5sccc45)CC3)cc21 [Example 55, N-ethylcarbamic acid 7-[4-(4-benzo[b]thiophen-4-ylpiperazin-1-yl)butoxy]-2-oxo-2H-quinolin-1-ylmethyl ester]
CCC(C)C(=O)OCn1c(=O)ccc2ccc(OCCCCN3CCN(c4cccc5sccc45)CC3)cc21 (stereo not shown) [Example 87, 2-methylbutyric acid 7-[4-(4-benzo[b]thiophen-4-ylpiperazin-1-yl)butoxy]-2-oxo-2H-quinolin-1-ylmethyl ester]
CN(Cc1ccco1)C(=O)OCn1c(=O)ccc2ccc(OCCCCN3CCN(c4cccc5sccc45)CC3)cc21 [Example 125, N-furan-2-ylmethyl-N-methylcarbamic acid 7-[4-(4-benzo[b]thiophen-4-ylpiperazin-1-yl)butoxy]-2-oxo-2H-quinolin-1-ylmethyl ester]
O=C(OCn1c(=O)ccc2ccc(OCCCCN3CCN(c4cccc5sccc45)CC3)cc21)OC1CCCCC1 [Example 146, carbonic acid 7-[4-(4-benzo[b]thiophen-4-ylpiperazin-1-yl)butoxy]-2-oxo-2H-quinolin-1-ylmethyl ester cyclohexyl ester]
CCCCCCCCCCCCCCCCOC(=O)OCn1c(=O)ccc2ccc(OCCCCN3CCN(c4cccc5sccc45)CC3)cc21 [Example 180, carbonic acid 7-[4-(4-benzo[b]thiophen-4-ylpiperazin-1-yl)butoxy]-2-oxo-2H-quinolin-1-ylmethyl ester hexadecyl ester]
CCCCCCCCCCCC(=O)Oc1ccc2ccc(OCCCCN3CCN(c4cccc5sccc45)CC3)cc2n1 [Example 379, 7-[4-(4-benzo[b]thiophen-4-yl-piperazin-1-yl)-butoxy]-quinolin-2-yl dodecanoate]
O=C(OCN1C(=O)CCc2ccc(OCCCCN3CCN(c4cccc5sccc45)CC3)cc21)C1CCCCC1 [Example 14, cyclohexanecarboxylic acid 7-[4-(4-benzo[b]thiophen-4-ylpiperazin-1-yl)butoxy]-2-oxo-3,4-dihydro-2H-quinolin-1-ylmethyl ester]
CCCCCCCCCCNC(=O)OCn1c(=O)ccc2ccc(OCCCCN3CCN(c4cccc5sccc45)CC3)cc21 [Example 34, N-decylcarbamic acid 7-[4-(4-benzo[b]thiophen-4-ylpiperazin-1-yl)butoxy]-2-oxo-2H-quinolin-1-ylmethyl ester]
CCCCCCCCCOC(=O)OCn1c(=O)ccc2ccc(OCCCCN3CCN(c4cccc5sccc45)CC3)cc21 [Example 177, carbonic acid 7-[4-(4-benzo[b]thiophen-4-ylpiperazin-1-yl)butoxy]-2-oxo-2H-quinolin-1-ylmethyl ester nonyl ester]
CCN(CC)C(=O)OCn1c(=O)ccc2ccc(OCCCCN3CCN(c4cccc5sccc45)CC3)cc21 [Example 57, N,N-diethylcarbamic acid 7-[4-(4-benzo[b]thiophen-4-ylpiperazin-1-yl)butoxy]-2-oxo-2H-quinolin-1-ylmethyl ester]
O=C(NOCc1ccccc1)OCn1c(=O)ccc2ccc(OCCCCN3CCN(c4cccc5sccc45)CC3)cc21 [Example 69, 7-[4-(4-benzo[b]thiophen-4-ylpiperazin-1-yl)butoxy]-2-oxo-2H-quinolin-1-ylmethyl benzyloxycarbamate]
COC(=O)OCN1C(=O)CCc2ccc(OCCCCN3CCN(c4cccc5sccc45)CC3)cc21 [Example 72, carbonic acid 7-[4-(4-benzo[b]thiophen-4-ylpiperazin-1-yl)butoxy]-2-oxo-3,4-dihydro-2H-quinolin-1-ylmethyl ester methyl ester]
O=C(OCN1C(=O)CCc2ccc(OCCCCN3CCN(c4cccc5sccc45)CC3)cc21)N1CCOCC1 [Example 86, morpholine-4-carboxylic acid 7-[4-(4-benzo[b]thiophen-4-ylpiperazin-1-yl)butoxy]-2-oxo-3,4-dihydro-2H-quinolin-1-ylmethyl ester]
O=C(OCN1C(=O)CCc2ccc(OCCCCN3CCN(c4cccc5sccc45)CC3)cc21)c1cccs1 [Example 131, thiophene-2-carboxylic acid 7-[4-(4-benzo[b]thiophen-4-ylpiperazin-1-yl)butoxy]-2-oxo-3,4-dihydro-2H-quinolin-1-ylmethyl ester]
O=C(NC1CCCCC1)OCn1c(=O)ccc2ccc(OCCCCN3CCN(c4cccc5sccc45)CC3)cc21 [Example 71, N-cyclohexylcarbamic acid 7-[4-(4-benzo[b]thiophen-4-ylpiperazin-1-yl)butoxy]-2-oxo-2H-quinolin-1-ylmethyl ester]

Same assay, conditions: sesame oil, oil or lipid, thermodynamic from solid

solubility, > 100 mg/mL:
O=C(Oc1ccc2ccc(OCCCCN3CCN(c4cccc5sccc45)CC3)cc2n1)C1CCCCC1 [Example 380, 7-[4-(4-benzo[b]thiophen-4-yl-piperazin-1-yl)-butoxy]-quinolin-2-yl cyclohexanecarboxylate]
CCCCN(CCCC)C(=O)OCN1C(=O)CCc2ccc(OCCCCN3CCN(c4cccc5sccc45)CC3)cc21 [Example 28, N,N-dibutylcarbamic acid 7-[4-(4-benzo[b]thiophen-4-ylpiperazin-1-yl)butoxy]-2-oxo-3,4-dihydro-2H-quinolin-1-ylmethyl ester]
CCCCCCCCCCCCCCCCOC(=O)OCn1c(=O)ccc2ccc(OCCCCN3CCN(c4cccc5sccc45)CC3)cc21 [Example 180, carbonic acid 7-[4-(4-benzo[b]thiophen-4-ylpiperazin-1-yl)butoxy]-2-oxo-2H-quinolin-1-ylmethyl ester hexadecyl ester]
CCCCCCCCCCCC(=O)Oc1ccc2ccc(OCCCCN3CCN(c4cccc5sccc45)CC3)cc2n1 [Example 379, 7-[4-(4-benzo[b]thiophen-4-yl-piperazin-1-yl)-butoxy]-quinolin-2-yl dodecanoate]
CCCCCCCCCOC(=O)OCn1c(=O)ccc2ccc(OCCCCN3CCN(c4cccc5sccc45)CC3)cc21 [Example 177, carbonic acid 7-[4-(4-benzo[b]thiophen-4-ylpiperazin-1-yl)butoxy]-2-oxo-2H-quinolin-1-ylmethyl ester nonyl ester]
CCN(CC)C(=O)OCn1c(=O)ccc2ccc(OCCCCN3CCN(c4cccc5sccc45)CC3)cc21 [Example 57, N,N-diethylcarbamic acid 7-[4-(4-benzo[b]thiophen-4-ylpiperazin-1-yl)butoxy]-2-oxo-2H-quinolin-1-ylmethyl ester]
